Three compounds from ChEMBL document CHEMBL1275297, “Homology modeling and molecular dynamics of CYP1A1 and CYP2B1 to explore the metabolism of aryl derivatives by docking and experimental assays” (Eur J Med Chem, 2010) can be followed below.

Structures are written as SMILES.

For one experiment, the target named is T1, Cytochrome P450 2B1 (Rattus norvegicus, UniProt P00176).
T1 sequence (P00176 whole entry): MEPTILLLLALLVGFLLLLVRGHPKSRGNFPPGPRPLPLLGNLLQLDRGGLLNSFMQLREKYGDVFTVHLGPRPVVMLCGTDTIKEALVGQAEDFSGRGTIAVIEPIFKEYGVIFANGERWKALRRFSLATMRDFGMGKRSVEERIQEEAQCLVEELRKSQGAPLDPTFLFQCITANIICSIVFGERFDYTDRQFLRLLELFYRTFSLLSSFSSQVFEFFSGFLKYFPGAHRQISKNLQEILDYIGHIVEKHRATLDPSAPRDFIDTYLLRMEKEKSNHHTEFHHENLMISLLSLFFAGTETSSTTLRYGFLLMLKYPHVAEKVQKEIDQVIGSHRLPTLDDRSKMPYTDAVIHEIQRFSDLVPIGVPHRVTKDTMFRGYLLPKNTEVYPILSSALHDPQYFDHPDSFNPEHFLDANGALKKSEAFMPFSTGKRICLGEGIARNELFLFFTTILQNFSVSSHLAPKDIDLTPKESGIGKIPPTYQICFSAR
In words: Binding affinity to rat CYP2B1. The experiment is classed as ADME.

The target in a further experiment is T2, Cytochrome P450 1A1 (Homo sapiens, UniProt P04798).
T2 sequence (P04798 whole entry): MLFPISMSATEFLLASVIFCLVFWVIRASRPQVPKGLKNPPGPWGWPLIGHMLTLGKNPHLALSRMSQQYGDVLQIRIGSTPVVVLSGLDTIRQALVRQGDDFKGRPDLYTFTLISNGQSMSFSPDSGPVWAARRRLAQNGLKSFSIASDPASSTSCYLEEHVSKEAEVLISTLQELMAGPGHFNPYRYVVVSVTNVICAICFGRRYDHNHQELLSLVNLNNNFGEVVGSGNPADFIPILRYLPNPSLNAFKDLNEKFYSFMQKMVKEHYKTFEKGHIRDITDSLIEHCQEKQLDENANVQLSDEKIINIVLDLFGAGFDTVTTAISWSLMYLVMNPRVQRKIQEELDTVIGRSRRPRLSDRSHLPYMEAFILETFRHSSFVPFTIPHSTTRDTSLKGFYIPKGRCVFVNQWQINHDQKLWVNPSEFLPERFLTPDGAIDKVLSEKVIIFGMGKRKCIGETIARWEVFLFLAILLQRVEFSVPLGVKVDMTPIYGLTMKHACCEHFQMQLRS
As to the kind of experiment: Binding affinity to human CYP1A1. The experiment is classed as ADME.

Experiment [1] is described as follows: Binding affinity to rat CYP2B1-heme complex.
Experiment [2] can be described thus: Binding affinity to human CYP1A1-heme complex.

Regarding `O=C(O)CCC(=O)Nc1ccc(O)cc1`, the Kd (as a rule, the free concentration of one partner at which half of the binding sites on the other are occupied at equilibrium, for simple one-to-one binding) on Cytochrome P450 2B1 was determined as 1.12 µM; on Cytochrome P450 1A1, 2.25 µM; in experiment [1] it was 1.77 µM; in experiment [2], 0.789 µM.

`CC(=O)Nc1ccc(O)cc1` [ACETAMINOPHEN]: the Kd on Cytochrome P450 1A1 worked out at 19.1 µM; in experiment [1], 6.64 µM; in experiment [2], 5.79 µM.

Consider `O=C1CCC(=O)N1c1ccc(O)cc1`, for which the Kd was found to be 24 µM on Cytochrome P450 2B1, 13.5 µM at Cytochrome P450 1A1, 1.57 µM in experiment [1] and 3.96 µM in experiment [2].
